Tested on: response of the rabbit colon in vitro to bradykinin
Test: Inhibition of the bradykinin response of rabbit colon mucosa in vitro (transepithelial potential difference and short circuit current, Ussing chambers)
Assay type: cell-based, New Zealand white male rabbits
Settings: Oryctolagus cuniculus, 0.5 h, incubated 30 min prior to bradykinin (1×10^-6 M), read-out: ED50 (the source's name)
Description: Measurement of transepithelial potential difference (PD) and short circuit current (Isc)
New Zealand white male rabbits (2-3 kg) were fed standard rabbit chow and water ad lib. Rabbits were killed by cervical dislocation, and the distal colon or ileum removed rapidly, opened along its mesenteric border, and rinsed clean of luminal contents with cold Ringer's solution containing, in mmol/liter NaCl, 114; KCl, 5; NaH2 PO4, 0.3; CaCl2, 1.25; MgCl2, 1.1; and NaHCO3, 25 (standard Ringer). Before use, tissues were maintained in ice-cold Ringer with 95% O2 /5% CO2. The standard ringer solution also contained captopril (5×10^-6 M) to inhibit bradykinin metabolism.
The serosa and two muscle layers were removed by placing a 10 cm strip of ileum, serosa up, on a Lucite plate, making a transverse cut through both external muscle layers with a razor blade, and stripping off the layers longitudinally.
Transepithelial electrical potential difference (PD), total conductance (Gt), and short circuit current (Isc) were measured as described by M. Field et al (A M J. Physiol, 220 1388-1396). Six pieces of mucosa were mounted in Ussing chambers (1.12 cm^2 cross-sectional area), and bathed with 8 ml of standard Ringer on each side. Solutions were circulated by gas lift and maintained at 37° C. in water jacketed reservoirs. […]

Compound | IC50
CNC1=NN(c2cccc(C(F)(F)F)c2)CC1 [R^1 CH3, 3-methylamino-1-(3-trifluoromethylphenyl)-2-pyrazoline] | 50 µM
NC1=NN(c2cccc(C(F)(F)F)c2)CC1 [R^1 H, 3-amino-1-(3-trifluoromethylphenyl)-2-pyrazoline] | 200 µM

From patent publication US4448783A, “Substituted pyrazoline, and its use in treatment of gastro-intestinal disturbances” (Burroughs Wellcome Co., priority 1982, dated 1984)
